The molecules below were run against T1, human TLR7 (Homo sapiens, UniProt Q9NYK1) (assay: HEK293-Blue-hTLR-7 cells assay (SEAP reporter, R848 stimulation)). Details: HEK293-Blue-hTLR7 cells, R848 ligand, 20 hrs incubation.
T1 sequence (Q9NYK1 27-1049): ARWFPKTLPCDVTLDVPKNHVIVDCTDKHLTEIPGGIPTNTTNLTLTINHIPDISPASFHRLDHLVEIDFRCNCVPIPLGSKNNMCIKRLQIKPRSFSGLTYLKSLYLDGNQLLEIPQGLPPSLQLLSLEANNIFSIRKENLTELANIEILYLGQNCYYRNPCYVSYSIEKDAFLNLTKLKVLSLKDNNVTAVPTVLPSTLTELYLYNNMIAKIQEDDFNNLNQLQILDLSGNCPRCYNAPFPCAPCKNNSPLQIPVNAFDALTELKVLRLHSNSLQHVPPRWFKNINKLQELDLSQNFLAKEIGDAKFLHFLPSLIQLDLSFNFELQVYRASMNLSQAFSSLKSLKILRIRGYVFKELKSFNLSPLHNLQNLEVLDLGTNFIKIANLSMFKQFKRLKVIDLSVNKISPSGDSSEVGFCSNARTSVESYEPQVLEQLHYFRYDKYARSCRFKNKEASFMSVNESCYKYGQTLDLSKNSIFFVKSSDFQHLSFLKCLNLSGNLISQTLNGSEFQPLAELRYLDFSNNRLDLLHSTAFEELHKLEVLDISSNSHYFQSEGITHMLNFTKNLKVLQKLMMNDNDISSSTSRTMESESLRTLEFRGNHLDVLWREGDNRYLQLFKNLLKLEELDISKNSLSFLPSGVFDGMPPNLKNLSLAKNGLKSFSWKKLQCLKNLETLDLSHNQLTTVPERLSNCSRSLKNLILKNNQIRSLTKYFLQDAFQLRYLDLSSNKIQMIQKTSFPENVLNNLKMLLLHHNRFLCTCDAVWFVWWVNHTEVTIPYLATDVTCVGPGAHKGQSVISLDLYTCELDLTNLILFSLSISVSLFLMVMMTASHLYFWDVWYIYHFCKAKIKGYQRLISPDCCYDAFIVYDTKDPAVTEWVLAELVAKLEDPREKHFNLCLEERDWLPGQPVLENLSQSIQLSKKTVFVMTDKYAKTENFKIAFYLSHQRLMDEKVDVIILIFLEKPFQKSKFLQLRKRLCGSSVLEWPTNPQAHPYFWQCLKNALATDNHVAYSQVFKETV
Type: cell-based
Protocol: The following tests were carried out in order to determine the activity of the compounds of formula (I) in HEK293-Blue-hTLR-7/8/9 cells assay.
HEK293-Blue-hTLR-7 Cells Assay:
A stable HEK293-Blue-hTLR-7 cell line was purchased from InvivoGen (Cat. #: hkb-htlr7, San Diego, Calif., USA). These cells were originally designed for studying the stimulation of human TLR7 by monitoring the activation of NF-κB. A SEAP (secreted embryonic alkaline phosphatase) reporter gene was placed under the control of the IFN-β minimal promoter fused to five NF-κB and AP-1-binding sites. The SEAP was induced by activating NF-κB and AP-1 via stimulating HEK-Blue hTLR7 cells with TLR7 ligands. Therefore the reporter expression was declined by TLR7 antagonist under the stimulation of a ligand, such as R848 (Resiquimod), for incubation of 20 hrs. The cell culture supernatant SEAP reporter activity was determined using QUANTI-Blue™ kit (Cat. #: rep-qb1, Invivogen, San Diego, Ca, USA) at a wavelength of 640 nm, a detection medium that turns purple or blue in the presence of alkaline phosphatase.
HEK293-Blue-hTLR7 cells were incubated at a density of 250,000-450,000 cells/mL in a volume of 170 μL in a 96-well plate in Dulbecco's Modified Eagle's medium (DMEM) containing 4.5 g/L glucose, 50 U/mL penicillin, […], […], 2 mM L-glutamine, 10% (v/v) heat-inactivated fetal bovine serum with addition of 20 μL test compound in a serial dilution in the presence of final DMSO at 1% and 10 μL of 20 uM R848 in above DMEM, perform incubation under 37° C. in a CO2 incubator for 20 hrs. Then 20 μL of the supernatant from each well was incubated with 180 μL Quanti-blue substrate solution at 37° C. for 2 hrs and the absorbance was read at 620-655 nm using a spectrophotometer. The signalling pathway that TLR7 activation leads to downstream NF-κB activation has been widely accepted, and therefore similar reporter assay was modified for evaluating TLR7 antagonist.

Structure (SMILES) | IC50
N#Cc1ccc(N2CC(CN3CCC4(CCNCC4)CC3)C3(CC3)C2)c2nccnc12 (stereo not drawn) [Example 16, 8-[7-(3,9-Diazaspiro[5.5]undecan-3-ylmethyl)-5-azaspiro[2.4]heptan-5-yl]quinoxaline-5-carbonitrile] | 113 nM
N#Cc1ccc(N2C[C@H](CN3CCC4(CCCNC4)CC3)[C@@H](C(F)(F)F)C2)c2nccnc12 [Example 45, 8-[(3S,4R)-3-(2,9-diazaspiro[5.5]undecan-9-ylmethyl)-4-(trifluoromethyl)pyrrolidin-1-yl]quinoxaline-5-carbonitrile] | 49 nM
N#Cc1ccc(N2CC(CN3CC4(CCCNC4)C3)C3(CC3)C2)c2nccnc12 (stereo not drawn) [Example 24, 8-[7-(2,8-Diazaspiro[3.5]nonan-2-ylmethyl)-5-azaspiro[2.4]heptan-5-yl]quinoxaline-5-carbonitrile] | 298 nM
N#Cc1ccc(N2CC(CN3CCC4(CC3)CNCCO4)C3(CC3)C2)c2nccnc12 (stereo not drawn) [Example 49, 8-[7-(1-Oxa-4,9-diazaspiro[5.5]undecan-9-ylmethyl)-5-azaspiro[2.4]heptan-5-yl]quinoxaline-5-carbonitrile] | 153 nM
N#Cc1ccc(N2C[C@@H](CN3CCC4(CCNCC4)CC3)[C@H](C3CC3)C2)c2cccnc12 (relative stereo) [Example 28, 5-[Trans-3-cyclopropyl-4-(3,9-diazaspiro[5.5]undecan-3-ylmethyl)pyrrolidin-1-yl]quinoline-8-carbonitrile] | 355 nM
N#Cc1ccc(N2C[C@H](CN3CCC(CN)CC3)[C@@H](C(F)(F)F)C2)c2nccnc12 [Example 74, 8-[(3S,4R)-3-[[4-(aminomethyl)-1-piperidyl]methyl]-4-(trifluoromethyl)pyrrolidin-1-yl]quinoxaline-5-carbonitrile] | 28 nM
CC(C)[C@@H]1CN(c2ccc(C#N)c3ncccc23)C[C@H]1CN1CCC2(CCNCC2)CC1 (relative stereo) [Example 36, 5-[Trans-3-(3,9-diazaspiro[5.5]undecan-3-ylmethyl)-4-isopropyl-pyrrolidin-1-yl]quinoline-8-carbonitrile] | 471 nM
N#Cc1ccc(N2C[C@H](CN3CCC4(CC3)CNCCO4)[C@@H](C(F)(F)F)C2)c2nccnc12 [Example 70, 8-[(3S,4R)-3-(1-oxa-4,9-diazaspiro[5.5]undecan-9-ylmethyl)-4-(trifluoromethyl)pyrrolidin-1-yl]quinoxaline-5-carbonitrile] | 12 nM
CN(C)C[C@@H]1CCN(C[C@H]2CN(c3ccc(C#N)c4nccnc34)C[C@@H]2C(F)(F)F)C1 [Example 82, 8-[(3S,4R)-3-[[(3S)-3-[(dimethylamino)methyl]pyrrolidin-1-yl]methyl]-4-(trifluoromethyl)pyrrolidin-1-yl]quinoxaline-5-carbonitrile] | 106 nM
N#Cc1ccc(N2C[C@H](CN3CC4CCC(C3)C4N)[C@@H](C(F)(F)F)C2)c2nccnc12 (stereo partly drawn) [Example 73, 8-[(3S,4R)-3-[(8-amino-3-azabicyclo[3.2.1]octan-3-yl)methyl]-4-(trifluoromethyl)pyrrolidin-1-yl]quinoxaline-5-carbonitrile] | 20 nM
N#Cc1ccc(N2C[C@H](CN3CCC(N)C(F)(F)C3)[C@@H](C(F)(F)F)C2)c2nccnc12 (stereo partly drawn) [Example 64, 8-[(3S,4R)-3-[(4-amino-3,3-difluoro-1-piperidyl)methyl]-4-(trifluoromethyl)pyrrolidin-1-yl]quinoxaline-5-carbonitrile] | 36 nM
CN(C)C1CCN(C[C@H]2CN(c3ccc(C#N)c4nccnc34)C[C@@H]2C(F)(F)F)CC1 [Example 80, 8-[(3S,4R)-3-[[4-(dimethylamino)-1-piperidyl]methyl]-4-(trifluoromethyl)pyrrolidin-1-yl]quinoxaline-5-carbonitrile] | 14 nM
CC(C)[C@@H]1CN(c2ccc(C#N)c3ncccc23)C[C@H]1CN1CCC2(CCNC2)C1 (relative stereo) [Example 44, 5-[Trans-3-(2,7-diazaspiro[4.4]nonan-2-ylmethyl)-4-isopropyl-pyrrolidin-1-yl]quinoline-8-carbonitrile] | 963 nM
N#Cc1ccc(N2CC(CN3CCC(N)CC3)C3(CC3)C2)c2nccnc12 (single isomer, unassigned) [Example 68A, 8-[7-[(4-Amino-1-piperidyl)methyl]-5-azaspiro[2.4]heptan-5-yl]quinoxaline-5-carbonitrile] | 61 nM
N#Cc1ccc(N2CC(CN3CCC(N4CCOCC4)CC3)C3(CC3)C2)c2nccnc12 (stereo not drawn) [Example 58, 8-[7-[(4-Morpholino-1-piperidyl)methyl]-5-azaspiro[2.4]heptan-5-yl]quinoxaline-5-carbonitrile] | 313 nM
N#Cc1ccc(N2CC(CN3CCC4(CCNCC4)C3)C3(CC3)C2)c2nccnc12 (stereo not drawn) [Example 32, 8-[7-(2,8-Diazaspiro[4.5]decan-2-ylmethyl)-5-azaspiro[2.4]heptan-5-yl]quinoxaline-5-carbonitrile] | 402 nM
N#Cc1ccc(N2CC(CN3CC4(CC(N)C4)C3)C3(CC3)C2)c2nccnc12 (stereo not drawn) [Example 42, 8-[7-[(6-Amino-2-azaspiro[3.3]heptan-2-yl)methyl]-5-azaspiro[2.4]heptan-5-yl]quinoxaline-5-carbonitrile] | 867 nM
N#Cc1ccc(N2C[C@H](CN3CCC(N4CCCC4)CC3)[C@@H](C(F)(F)F)C2)c2nccnc12 [Example 60, 8-[(3S,4R)-3-[(4-Pyrrolidin-1-yl-1-piperidyl)methyl]-4-(trifluoromethyl)pyrrolidin-1-yl]quinoxaline-5-carbonitrile] | 29 nM
N#Cc1ccc(N2CC(CN3CCC4(CCCNC4)C3)C3(CC3)C2)c2nccnc12 (stereo not drawn) [Example 22, 8-[7-(2,9-Diazaspiro[4.5]decan-2-ylmethyl)-5-azaspiro[2.4]heptan-5-yl]quinoxaline-5-carbonitrile] | 201 nM
N#Cc1ccc(N2C[C@H](CN3CCC(N)CC3)[C@@H](C(F)(F)F)C2)c2nccnc12 [Example 26, 8-[(3S,4R)-3-[(4-Amino-1-piperidyl)methyl]-4-(trifluoromethyl)pyrrolidin-1-yl]quinoxaline-5-carbonitrile] | 55 nM
CC1(N)CCN(C[C@H]2CN(c3ccc(C#N)c4nccnc34)C[C@@H]2C(F)(F)F)CC1 [Example 12, 8-[(3S,4R)-3-[(4-amino-4-methyl-1-piperidyl)methyl]-4-(trifluoromethyl)pyrrolidin-1-yl]quinoxaline-5-carbonitrile] | 15 nM
N#Cc1ccc(N2C[C@@H](CN3CCC4(CCNC4)C3)[C@H](C(F)F)C2)c2cccnc12 (relative stereo) [Example 34, 5-[Trans-3-(2,7-diazaspiro[4.4]nonan-2-ylmethyl)-4-(difluoromethyl)pyrrolidin-1-yl]quinoline-8-carbonitrile] | 454 nM
N#Cc1ccc(N2C[C@H](CN3CCC4(CCNCC4)CC3)[C@@H](C(F)(F)F)C2)c2nccnc12 [Example 1, 8-[(3S,4R)-3-(3,9-diazaspiro[5.5]undecan-3-ylmethyl)-4-(trifluoromethyl)pyrrolidin-1-yl]quinoxaline-5-carbonitrile] | 5 nM
N#Cc1ccc(N2C[C@H](CN3CCC(N4CCCCCC4)CC3)[C@@H](C(F)(F)F)C2)c2nccnc12 [Example 62, 8-[(3S,4R)-3-[[4-(Azepan-1-yl)-1-piperidyl]methyl]-4-(trifluoromethyl)pyrrolidin-1-yl]quinoxaline-5-carbonitrile] | 34 nM
